What was measured:
[1] = molecular target: T1, human cloned 5-HT2C receptor, expressed in CHO cells (Homo sapiens, UniProt P28335); assay: In vitro binding affinity for 5-HT2C receptor ([3H]mesulergine radioligand binding); settings: human cloned 5-HT2C receptor; for IC50: read-out: 5-HT2C pIC50 (converted)
T1 construct: expressed in transfected cells; host or cells: CHO cells
T1 sequence (P28335 33-458): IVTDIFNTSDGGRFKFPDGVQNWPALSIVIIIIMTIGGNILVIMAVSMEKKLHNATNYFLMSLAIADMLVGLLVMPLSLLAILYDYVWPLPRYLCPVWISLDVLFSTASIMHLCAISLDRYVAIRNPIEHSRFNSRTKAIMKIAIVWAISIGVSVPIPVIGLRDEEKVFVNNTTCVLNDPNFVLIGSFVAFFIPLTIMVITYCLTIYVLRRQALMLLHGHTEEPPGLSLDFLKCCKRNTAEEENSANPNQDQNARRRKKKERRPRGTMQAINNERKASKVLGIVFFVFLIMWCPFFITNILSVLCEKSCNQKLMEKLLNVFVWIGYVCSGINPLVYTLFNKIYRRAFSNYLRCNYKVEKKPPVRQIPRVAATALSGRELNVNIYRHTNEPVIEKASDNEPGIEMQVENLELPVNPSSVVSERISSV
Outline: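 Receptor-bound radioligand counted after separation from unbound label once equilibrium is reached. Test compound added across a concentration range to tissue preparation plus radioligand; inhibition of binding reflects affinity and concentration.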

[2] = molecular target: T2, human Dopamine D2L receptor (Homo sapiens, UniProt P14416); assay: In vitro binding affinity for human D2L receptor ([3H]Spiperone binding); settings: human D2L receptor-transfected CHO cell membranes; for IC50: read-out: D2L pIC50 (converted)
T2 construct: expressed in transfected cells; host or cells: CHO cells
T2 sequence (P14416 whole entry): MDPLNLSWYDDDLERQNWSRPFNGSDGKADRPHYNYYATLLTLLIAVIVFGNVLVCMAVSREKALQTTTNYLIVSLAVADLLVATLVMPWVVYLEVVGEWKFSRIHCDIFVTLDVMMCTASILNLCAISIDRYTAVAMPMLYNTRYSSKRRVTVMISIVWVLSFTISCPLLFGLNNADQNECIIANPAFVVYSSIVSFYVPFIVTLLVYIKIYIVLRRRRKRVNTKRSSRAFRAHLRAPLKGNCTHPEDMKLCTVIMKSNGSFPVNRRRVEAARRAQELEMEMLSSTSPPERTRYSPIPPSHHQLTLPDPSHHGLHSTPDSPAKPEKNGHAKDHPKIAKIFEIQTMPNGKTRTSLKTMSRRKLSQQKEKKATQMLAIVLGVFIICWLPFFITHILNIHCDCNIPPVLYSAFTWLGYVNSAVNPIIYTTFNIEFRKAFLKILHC
Outline: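 Competition curves were expressed as percent specific binding, measured by scintillation counting after filtration onto GF/B filters and ice-cold Tris washes. Test compounds competed with [3H]Spiperone, added from a 2 nmol/L dilution, for 30 min at 37° C on transfected CHO membranes in pH 7.7 Tris-HCl salt buffer. Butaclamol at 10^−6 mol/l final marked non-specific binding.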

[3] = molecular target: T3, NET (norepinephrine transporter) (Rattus norvegicus, UniProt Q63380); assay: In vitro determination of NET reuptake inhibition ([3H]Nixosetine binding, rat brain cortex); settings: rat brain cortex; for IC50: read-out: NET pIC50 (converted)
T3 construct: Cortex from rat brain was collected and homogenised; from tissue; host or cells: rat brain cortex
T3 sequence (Q63380 1-617): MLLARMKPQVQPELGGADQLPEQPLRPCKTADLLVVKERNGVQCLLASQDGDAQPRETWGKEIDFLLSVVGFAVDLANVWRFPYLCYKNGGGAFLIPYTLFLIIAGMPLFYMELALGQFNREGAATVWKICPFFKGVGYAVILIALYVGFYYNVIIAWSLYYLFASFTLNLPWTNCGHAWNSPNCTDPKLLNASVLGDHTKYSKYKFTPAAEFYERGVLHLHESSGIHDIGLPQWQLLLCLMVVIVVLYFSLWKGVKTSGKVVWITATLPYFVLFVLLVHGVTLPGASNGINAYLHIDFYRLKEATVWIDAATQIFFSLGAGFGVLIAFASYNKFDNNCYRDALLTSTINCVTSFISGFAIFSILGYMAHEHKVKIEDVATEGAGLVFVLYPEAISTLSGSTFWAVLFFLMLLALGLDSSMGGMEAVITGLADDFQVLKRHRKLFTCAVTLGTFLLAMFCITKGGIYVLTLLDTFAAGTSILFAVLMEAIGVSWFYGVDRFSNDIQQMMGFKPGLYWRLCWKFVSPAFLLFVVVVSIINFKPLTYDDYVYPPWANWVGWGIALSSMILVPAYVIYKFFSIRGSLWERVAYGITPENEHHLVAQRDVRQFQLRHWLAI
Outline: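 Competition curves and percentage specific binding came from scintillation counting of filter-trapped radioactivity. The membranes were rat cortical homogenate in pH 7.4 Tris buffer with 120 mM NaCl and 5 mM KCl. Test compounds competed with [3H]nisoxetine for binding.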

[4] = molecular target: T4, human cloned 5-HT2A receptor, expressed in L929 cells (Homo sapiens, UniProt P28223); assay: In vitro binding affinity for 5-HT2A receptor ([125I]R91150 radioligand binding); settings: human cloned 5-HT2A receptor in L929 cells, [125I]R91150; for IC50: read-out: 5-HT2A pIC50 (converted)
T4 construct: expressed in transfected cells; host or cells: L929 cells
T4 sequence (P28223 whole entry): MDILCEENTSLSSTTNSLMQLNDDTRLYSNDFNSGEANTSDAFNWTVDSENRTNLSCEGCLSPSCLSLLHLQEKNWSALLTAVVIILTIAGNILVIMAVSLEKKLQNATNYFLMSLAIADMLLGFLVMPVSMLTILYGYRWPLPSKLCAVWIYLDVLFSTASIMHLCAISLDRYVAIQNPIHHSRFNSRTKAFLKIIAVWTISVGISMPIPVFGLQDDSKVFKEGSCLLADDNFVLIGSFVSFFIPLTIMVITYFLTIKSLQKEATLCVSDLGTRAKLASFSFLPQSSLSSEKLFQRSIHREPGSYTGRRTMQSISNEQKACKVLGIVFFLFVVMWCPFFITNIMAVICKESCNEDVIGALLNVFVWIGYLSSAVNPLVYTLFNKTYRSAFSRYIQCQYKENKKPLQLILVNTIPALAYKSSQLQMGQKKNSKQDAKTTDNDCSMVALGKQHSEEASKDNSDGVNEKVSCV
Outline: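 Competition radioligand binding to human cloned 5-HT2A receptor expressed in L929 cells, using [125I]R91150 with test compound at various concentrations. At equilibrium, receptor-bound radioactivity was separated from free and counted. Affinity reflects inhibition of radioligand binding.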

| SMILES | IC50 [1] | IC50 [2] | IC50 [3] | IC50 [4] | 5-HT2C pIC50 [1] | D2L pIC50 [2] | NET pIC50 [3] | 5-HT2A pIC50 [4] |
| --- | --- | --- | --- | --- | --- | --- | --- | --- |
| CCOC(=O)C=C1CCN(CC2CC3c4ccccc4Cc4ccc(F)cc4C3O2)CC1 (stereo not shown) [Compound 165] | 27.5 nM | 38.9 nM | 3630 nM | 10.7 nM |  |  |  |  |
| CN(C)C1CCN(CC2CC3c4ccccc4Cc4ccc(F)cc4C3O2)C1 (mixture of isomers) [Compound 9] | 9.55 nM | 9.12 nM | 4570 nM | 9.12 nM |  |  |  |  |
| O=C(NCCCO)C1CCN(CC2CC3c4ccccc4Cc4ccc(F)cc4C3O2)CC1 (stereo not shown) [Compound 175] | 1.74 nM | 18.2 nM | > 10000 nM | 0.759 nM |  |  |  |  |
| Fc1ccc2c(c1)[C@@H]1O[C@@H](CN3CCN(CC4CCCCC4)CC3)C[C@@H]1c1ccccc1C2 [Compound 69] | 79.4 nM | 7.24 nM | > 10000 nM | 41.7 nM |  |  |  |  |
| O=S(=O)(c1ccccc1)N1CCN(CC2CC3c4ccccc4Cc4ccc(F)cc4C3O2)CC1 (stereo not shown) [Compound 106] | 61.7 nM | 44.7 nM | 9550 nM | 16.6 nM |  |  |  |  |
| Fc1ccc2c(c1)C1OC(CN3CCN(C(=S)NCc4ccccc4)CC3)CC1c1ccccc1C2 (stereo not shown) [Compound 113] | 24 nM | 50.1 nM | 2400 nM | 11 nM |  |  |  |  |
| Fc1ccc2c(c1)C1OC(CN3CCC(NC(=S)NCCN4CCOCC4)CC3)CC1c1ccccc1C2 (stereo not shown) [Compound 253] | 10.2 nM | 24.5 nM | 1510 nM | 2.09 nM |  |  |  |  |
| N#CCCC1CCN(CC2CC3c4ccccc4Cc4ccc(F)cc4C3O2)CC1 (stereo not shown) [Compound 170] | 2.63 nM | 1.51 nM | 4270 nM | 1.82 nM |  |  |  |  |
| Fc1ccc2c(c1)C1OC(CN3CCC(N4CCCCC4)CC3)CC1c1ccccc1C2 (stereo not shown) [Compound 172] | 15.8 nM | 43.7 nM | 6760 nM | 15.1 nM |  |  |  |  |
| O=C(C1CC1)N1CCN(C[C@H]2C[C@@H]3c4ccccc4Cc4ccc(F)cc4[C@@H]3O2)CC1 [Compound 78, [2R-(2α, 3aα, 12bβ)]cyclopropyl-[4-(11-fluoro-3,3a, 8,12b-tetrahydro-2H-1-oxa-dibenzo[e,h]azulen-2-ylmethyl)-piperazin-1-yl]-methanone.oxalate (1:1)] | 8.91 nM | 36.3 nM | > 10000 nM | 2.24 nM |  |  |  |  |
| CC1(O)CCN(C[C@H]2C[C@@H]3c4ccccc4Cc4ccc(F)cc4[C@@H]3O2)C1 (stereo partly shown) [Compound 39] | 0.513 nM | 3.09 nM | 1950 nM | 0.631 nM |  |  |  |  |
| Fc1ccc2c(c1)C1OC(CN3CCN(c4nc5ccccc5[nH]4)CC3)CC1c1ccccc1C2 (stereo not shown) [Compound 127] | 4.17 nM | 22.4 nM | 3800 nM | 0.251 nM |  |  |  |  |
| CN1c2ccccc2C2CC(CN3CCC(O)C3)OC2c2ccccc21 (racemic) [Compound 263] | 13.2 nM | 550 nM | 2880 nM | 251 nM |  |  |  |  |
| Cc1ccc(OC2CCN(CC3CC4c5ccccc5Cc5ccc(F)cc5C4O3)C2)cc1 (stereo not shown) [Compound 28] | 1.78 nM | 7.59 nM | > 10000 nM | 18.6 nM |  |  |  |  |
| O=C(O)C(=O)O.OC1CCN(CC2CC3c4ccccc4Oc4ccc(Cl)cc4C3O2)CC1 (stereo not shown) [Compound 285] |  |  |  |  | 7.76 | 7.49 | <5 | 8.56 |
| COc1cccc(N2CCN(CC3CC4c5ccccc5Cc5ccc(F)cc5C4O3)CC2)n1 (stereo not shown) [Compound 118] | 7.59 nM | 26.3 nM | 2820 nM | 4.9 nM |  |  |  |  |
| Fc1ccc2c(c1)C1OC(CN3CCN(c4ncccc4C(F)(F)F)CC3)CC1c1ccccc1C2 (stereo not shown) [Compound 121] | 77.6 nM | 77.6 nM | 3550 nM | 13.2 nM |  |  |  |  |
| O=C(NCCCn1ccnc1)C1CCN(CC2CC3c4ccccc4Cc4ccc(F)cc4C3O2)CC1 (stereo not shown) [Compound 180] | 3.89 nM | 37.2 nM | > 10000 nM | 2.45 nM |  |  |  |  |
| O=C(NCC(O)CO)C1CCN(CC2CC3c4ccccc4Cc4ccc(F)cc4C3O2)CC1 (stereo not shown) [Compound 179] | 3.8 nM | 38 nM | > 10000 nM | < 10 nM |  |  |  |  |

| SMILES | IC50 [1] | IC50 [2] | IC50 [3] | IC50 [4] | 5-HT2C pIC50 [1] | D2L pIC50 [2] | NET pIC50 [3] | 5-HT2A pIC50 [4] |
| --- | --- | --- | --- | --- | --- | --- | --- | --- |
| Fc1ccc2c(c1)C1OC(CN3CCN(Cc4ccsc4)CC3)CC1c1ccccc1C2 (stereo not shown) [Compound 59] | 49 nM | 6.92 nM | 1260 nM | 14.8 nM |  |  |  |  |
| CCOC(=O)CNC(=S)N1CCN(CC2CC3c4ccccc4Cc4ccc(F)cc4C3O2)CC1 (stereo not shown) [Compound 110] | 47.9 nM | 36.3 nM | 5750 nM | 6.17 nM |  |  |  |  |
| COC(=O)c1ccc(OC2CCN(CC3CC4c5ccccc5Cc5ccc(F)cc5C4O3)C2)cc1 (stereo not shown) [Compound 30] | 5.75 nM | 16.2 nM | > 10000 nM | 10.5 nM |  |  |  |  |
| Fc1ccc2c(c1)C1OC(CN3CCN(Cc4ccc5ccccc5c4)CC3)CC1c1ccccc1C2 (stereo not shown) [Compound 74] | 162 nM | 30.9 nM | 3160 nM | 126 nM |  |  |  |  |
| OCC1CCN(C[C@H]2C[C@@H]3c4ccccc4Cc4ccc(F)cc4[C@@H]3O2)C1 (stereo partly shown) [Compound 5] | 0.204 nM | 8.51 nM | 4070 nM | < 10 nM |  |  |  |  |
| CCCCNC(=O)N1CCN(CC2CC3c4ccccc4Cc4ccc(F)cc4C3O2)CC1 (stereo not shown) [Compound 89] | 6.61 nM | 38.9 nM | > 10000 nM | 2.82 nM |  |  |  |  |
| O=C(O)C(=O)O.OCCN1CCCN(C[C@H]2C[C@@H]3c4ccccc4Cc4ccc(F)cc4[C@@H]3O2)CC1 [Compound 269] |  |  |  |  | 8.14 | 7.83 | 5.15 | 8.25 |
| COc1ccccc1OC1CCN(CC2CC3c4ccccc4Cc4ccc(F)cc4C3O2)C1 (mixture of isomers) [Compound 32] | 0.912 nM | 7.41 nM | 7410 nM | 2.19 nM |  |  |  |  |
| O=C(O)C(=O)O.OC1CCN(CC2CC3c4ccccc4Oc4ccc(Br)cc4C3O2)CC1 (stereo not shown) [Compound 286] |  |  |  |  | 7.81 | 7.50 | <5 | 8.33 |
| O=C(C1CCCC1)N1CCN(CC2CC3c4ccccc4Cc4ccc(F)cc4C3O2)CC1 (stereo not shown) [Compound 79] | 51.3 nM | 44.7 nM | > 10000 nM | 4.79 nM |  |  |  |  |
| O=C(NCc1cccc(C(F)(F)F)c1)N1CCN(CC2CC3c4ccccc4Cc4ccc(F)cc4C3O2)CC1 (stereo not shown) [Compound 101] | 12 nM | 17.4 nM | 8910 nM | 5.75 nM |  |  |  |  |
| COc1ccc(NC(=S)N2CCN(CC3CC4c5ccccc5Cc5ccc(F)cc5C4O3)CC2)cc1 (stereo not shown) [Compound 112] | 21.9 nM | 20.4 nM | 933 nM | 3.31 nM |  |  |  |  |
| CCS(=O)(=O)N1CCN(CC2CC3c4ccccc4Cc4ccc(F)cc4C3O2)CC1 (stereo not shown) [Compound 103] | 50.1 nM | 19.5 nM | > 10000 nM | 7.76 nM |  |  |  |  |
| O=C(NCc1ccc(F)cc1)N1CCN(CC2CC3c4ccccc4Cc4ccc(F)cc4C3O2)CC1 (stereo not shown) [Compound 99] | 8.13 nM | 11.5 nM | > 10000 nM | 3.16 nM |  |  |  |  |
| O=C(C1CCN(CC2CC3c4ccccc4Cc4ccc(F)cc4C3O2)CC1)N1CCN(c2cccc(Cl)c2)CC1 (stereo not shown) [Compound 202] | 8.13 nM | 24 nM | 1620 nM | 3.47 nM |  |  |  |  |
| Fc1ccc2c(c1)[C@@H]1O[C@@H](CN3CCCNCC3)C[C@@H]1c1ccccc1C2.O=C(O)C(=O)O.O=C(O)C(=O)O [Compound 267] |  |  |  |  | 7.65 | 6.81 | 5.10 | 7.84 |
| NCCN1CCN(CC2CC3c4ccccc4Cc4ccc(F)cc4C3O2)CC1 (stereo not shown) [Compound 47] | 34.7 nM | 10 nM | > 10000 nM | 6.46 nM |  |  |  |  |
| Fc1ccc2c(c1)C1OC(CN3CCN(Cc4ccco4)CC3)CC1c1ccccc1C2 (stereo not shown) [Compound 60] | 25.1 nM | 6.31 nM | 1550 nM | 7.76 nM |  |  |  |  |
